# Laboratory results reported in PubChem BioAssay (NCI).
#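 Interpolation was linear, between the two tested concentrations surrounding the appropriate level; five concentrations were tested over 48 hours in 96-well plates. The concentration for 50% growth inhibition is given as GI50. TGI: total growth inhibition.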
# What was measured:
# Test in all cases: NCI-60 cell line screen, 48 h
# [1] = test system: 786-0 renal
# [2] = test system: A498 renal
# [3] = test system: A549 NSCLC
# [4] = test system: ACHN renal
# [5] = test system: BT-549 breast
# [6] = test system: CAKI-1 renal
# [7] = test system: CCRF-CEM leukemia
# [8] = test system: COLO 205 colon
# [9] = test system: DU-145 prostate
# [10] = test system: EKVX NSCLC
# [11] = test system: HCC-2998 colon
# [12] = test system: HCT-116 colon
# [13] = test system: HCT-15 colon
# [14] = test system: HL-60(TB) leukemia
# [15] = test system: HOP-62 NSCLC
# [16] = test system: HOP-92 NSCLC
# [17] = test system: HS 578T breast
# [18] = test system: HT29 colon
# [19] = test system: IGROV1 ovarian
# [20] = test system: K-562 leukemia
# [21] = test system: KM12 colon
# [22] = test system: LOX IMVI melanoma
# [23] = test system: M14 melanoma
# [24] = test system: MALME-3M melanoma
# [25] = test system: MCF7 breast
# [26] = test system: MDA-MB-231 breast
# [27] = test system: MDA-MB-435
# [28] = test system: MOLT-4 leukemia
smiles,measurement,setting,value
CC(=O)/C(N=Nc1ccc2oc(=O)ccc2c1)=C(\C)O,GI50,[1],5.31 µM
same,TGI,[1],17.4 µM
same,GI50,[2],2.34 µM
same,TGI,[2],10.4 µM
same,GI50,[3],3.2 µM
same,TGI,[3],13.3 µM
same,GI50,[4],0.553 µM
same,TGI,[4],11.9 µM
same,GI50,[5],3.12 µM
same,TGI,[5],8.52 µM
same,GI50,[6],2.16 µM
same,TGI,[6],14.6 µM
same,GI50,[7],1.65 µM
same,TGI,[7],13.4 µM
same,GI50,[8],1.76 µM
same,TGI,[8],3.39 µM
same,GI50,[9],4.71 µM
same,TGI,[9],19 µM
same,GI50,[10],2.72 µM
same,TGI,[10],15.1 µM
same,GI50,[11],3.99 µM
same,TGI,[11],15.7 µM
same,GI50,[12],2.23 µM
same,TGI,[12],12 µM
same,GI50,[13],0.495 µM
same,TGI,[13],13.7 µM
same,GI50,[14],1.12 µM
same,TGI,[14],9.15 µM
same,GI50,[15],3.62 µM
same,TGI,[15],16.3 µM
same,GI50,[16],2.46 µM
same,TGI,[16],7.43 µM
same,GI50,[17],3.64 µM
same,TGI,[17],19 µM
same,GI50,[18],2.96 µM
same,TGI,[18],12.7 µM
same,GI50,[19],2.93 µM
same,TGI,[19],16.3 µM
same,GI50,[20],0.528 µM
same,TGI,[20],17 µM
same,GI50,[21],3.36 µM
same,TGI,[21],13.7 µM
same,GI50,[22],2.92 µM
same,TGI,[22],12.4 µM
same,GI50,[23],2.77 µM
same,TGI,[23],15.7 µM
same,GI50,[24],3 µM
same,TGI,[24],13.6 µM
same,GI50,[25],2.49 µM
same,TGI,[25],13 µM
same,GI50,[26],4.77 µM
same,TGI,[26],18.1 µM
same,GI50,[27],3.88 µM
same,TGI,[27],15.5 µM
same,GI50,[28],2.66 µM
same,TGI,[28],12.7 µM
